“And” between values parts separate entries of the source, which are not always exact repeats. Equal values may be shown once. ± gives the standard deviation of the averaged measurements.
Legend:
[1] = test system: SW620; test: cell viability relative to vehicle (resazurin, 96 h); higher = more viable
Method: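 SW620 WT or MTHFD2-/- cells were treated for 96 h with a compound dilution series (log10 M) in RPMI with normal or dialysed FBS. Viability was read by resazurin and is given as % of vehicle.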

[2] = test system: SW620; test: cell viability relative to lowest-dose well (resazurin, 96 h); higher = more viable; settings: RPMI + 10% FBS
Procedure, shortened: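 In 384-well plates, 50 µl RPMI with 10% FBS plus a metabolite supplement received 500 HCT116 or 1,000 SW620 cells per well. Dilution series of compounds, taken from 10 mM DMSO stocks, were added and the plates kept 96 h at 37 °C, 5% CO2. Viability, reported as percent of the lowest-dose well across independent replicate cultures, was measured as resazurin-to-resorufin conversion by fluorescence at 595 nm.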

CN(Cc1cnc2nc(N)nc(N)c2n1)c1ccc(C(=O)N[C@@H](CCC(=O)O)C(=O)O)cc1 [methotrexate]
Settings	cell viability
[1], log10 compound concentration (M): -8.81697, supplement / serum: RPMI + Dialyzed FBS, base medium: RPMI-1640	86.4 ± 12%
[1], log10 compound concentration (M): -8.81697, supplement / serum: RPMI + Normal FBS, base medium: RPMI-1640	97.4 ± 12%
[1], log10 compound concentration (M): -8.81697, supplement / serum: Vehicle, base medium: RPMI + dialysed FBS	119 ± 1.7%
[1], log10 compound concentration (M): -9.29409, supplement / serum: 50 μM Hypoxanthine + 50 μM Thymidine, base medium: RPMI + dialysed FBS	93.5 ± 8.8%
[1], log10 compound concentration (M): -9.29409, supplement / serum: Hypoxanthine + AICAr 10μM, base medium: RPMI + dialysed FBS	118 ± 2%
[1], log10 compound concentration (M): -9.29409, supplement / serum: Hypoxanthine + AICAr 30μM, base medium: RPMI + dialysed FBS	105 ± 3%
[1], log10 compound concentration (M): -9.29409, supplement / serum: Hypoxanthine + AICAr 50μM, base medium: RPMI + dialysed FBS	113 ± 6.1%
[1], log10 compound concentration (M): -9.29409, supplement / serum: Hypoxanthine + AICAr 100μM, base medium: RPMI + dialysed FBS	102 ± 7.3%
[1], log10 compound concentration (M): -9.29409, supplement / serum: Hypoxanthine, base medium: RPMI + dialysed FBS	97.3 ± 9.6%
[1], log10 compound concentration (M): -9.29409, supplement / serum: RPMI + Dialyzed FBS + 50μM Hypoxanthine, base medium: RPMI-1640	96.1 ± 4.9%
[1], log10 compound concentration (M): -9.29409, supplement / serum: RPMI + Dialyzed FBS, base medium: RPMI-1640	98.9 ± 2.7%
[1], log10 compound concentration (M): -9.29409, supplement / serum: RPMI + Normal FBS, base medium: RPMI-1640	99.1 ± 21%
[1], log10 compound concentration (M): -9.29409, supplement / serum: Vehicle, base medium: RPMI + dialysed FBS	112 ± 5.9%
[1], log10 compound concentration (M): -9.77121, supplement / serum: Hypoxanthine + AICAr 10μM, base medium: RPMI + dialysed FBS	112.06 ± 0.09%
[1], log10 compound concentration (M): -9.77121, supplement / serum: Hypoxanthine + AICAr 30μM, base medium: RPMI + dialysed FBS	94.8 ± 17%
[1], log10 compound concentration (M): -9.77121, supplement / serum: Hypoxanthine + AICAr 50μM, base medium: RPMI + dialysed FBS	120.1 ± 1.1%
[1], log10 compound concentration (M): -9.77121, supplement / serum: Hypoxanthine + AICAr 100μM, base medium: RPMI + dialysed FBS	98.9 ± 8.1%
[1], log10 compound concentration (M): -9.77121, supplement / serum: Hypoxanthine, base medium: RPMI + dialysed FBS	101 ± 21%
[1], log10 compound concentration (M): -9.77121, supplement / serum: RPMI + Dialyzed FBS + 50μM Hypoxanthine, base medium: RPMI-1640	94.8 ± 2%
[1], log10 compound concentration (M): -9.77121, supplement / serum: RPMI + Dialyzed FBS, base medium: RPMI-1640	96.3 ± 3.3%
[1], log10 compound concentration (M): -9.77121, supplement / serum: RPMI + Normal FBS, base medium: RPMI-1640	88.1 ± 15%
[1], log10 compound concentration (M): -9.77121, supplement / serum: Vehicle, base medium: RPMI + dialysed FBS	114 ± 5.1%
[2], 0.001 µM, metabolite supplement: 1uM folinic acid	101 ± 3.6%
[2], 0.001 µM, metabolite supplement: 50uM thymidine	95.8 ± 1.9%
[2], 0.001 µM, metabolite supplement: 50uM thymidine + 1uM folinic acid	102 ± 2.5%
[2], 0.001 µM, metabolite supplement: vehicle	96.5 ± 3.8%
[2], 0.00278 µM, metabolite supplement: 1uM folinic acid	101 ± 5.7%
[2], 0.00278 µM, metabolite supplement: 50uM thymidine	96.1 ± 2.9%
[2], 0.00278 µM, metabolite supplement: 50uM thymidine + 1uM folinic acid	102 ± 4.7%
[2], 0.00278 µM, metabolite supplement: vehicle	93.7 ± 5.5%
[2], 0.00774 µM, metabolite supplement: 1uM folinic acid	100 ± 3.9%
[2], 0.00774 µM, metabolite supplement: 50uM thymidine	73.1 ± 3.8%
[2], 0.00774 µM, metabolite supplement: 50uM thymidine + 1uM folinic acid	101 ± 2.2%
[2], 0.00774 µM, metabolite supplement: 50uM thymidine + 250uM folic acid	98.6 ± 2.7%
[2], 0.00774 µM, metabolite supplement: 250uM folic acid	98.4 ± 2.9%
[2], 0.00774 µM, metabolite supplement: vehicle	70.1 ± 6.1%
[2], 0.0215 µM, metabolite supplement: 1uM folinic acid	100 ± 5.1%
[2], 0.0215 µM, metabolite supplement: 50uM thymidine	55 ± 9.2%
[2], 0.0215 µM, metabolite supplement: 50uM thymidine + 1uM folinic acid	103 ± 4.9%
[2], 0.0215 µM, metabolite supplement: 50uM thymidine + 250uM folic acid	94.3 ± 6.2%
[2], 0.0215 µM, metabolite supplement: 250uM folic acid	89.1 ± 10%
[2], 0.0215 µM, metabolite supplement: vehicle	39.2 ± 8.2%
[2], 0.0599 µM, metabolite supplement: 1uM folinic acid	96.1 ± 13%
[2], 0.0599 µM, metabolite supplement: 50uM thymidine	30.1%
[2], 0.0599 µM, metabolite supplement: 50uM thymidine + 1uM folinic acid	102 ± 3.8%
[2], 0.0599 µM, metabolite supplement: 50uM thymidine + 250uM folic acid	79.3 ± 30%
[2], 0.0599 µM, metabolite supplement: 250uM folic acid	78 ± 14%
[2], 0.0599 µM, metabolite supplement: vehicle	29.9% and 27.9%
[2], 0.167 µM, metabolite supplement: 1uM folinic acid	85.3 ± 28%
[2], 0.167 µM, metabolite supplement: 50uM thymidine	26.8% and 27.8%
[2], 0.167 µM, metabolite supplement: 50uM thymidine + 1uM folinic acid	85.4 ± 27%
[2], 0.167 µM, metabolite supplement: 50uM thymidine + 250uM folic acid	45.2 ± 4.3%
[2], 0.167 µM, metabolite supplement: 250uM folic acid	47.8 ± 14%
[2], 0.167 µM, metabolite supplement: vehicle	32% and 27.2%
[2], 0.464 µM, metabolite supplement: 1uM folinic acid	59.2 ± 26%
[2], 0.464 µM, metabolite supplement: 50uM thymidine	27.5 ± 2.5%
[2], 0.464 µM, metabolite supplement: 50uM thymidine + 1uM folinic acid	68.2 ± 21%
[2], 0.464 µM, metabolite supplement: 50uM thymidine + 250uM folic acid	37.4 ± 4.9%
[2], 0.464 µM, metabolite supplement: 250uM folic acid	29.7 ± 0.9%
[2], 0.464 µM, metabolite supplement: vehicle	27.4 ± 3.8%
[2], 1.29 µM, metabolite supplement: 1uM folinic acid	51.8 ± 22%
[2], 1.29 µM, metabolite supplement: 50uM thymidine	26 ± 1.3%
[2], 1.29 µM, metabolite supplement: 50uM thymidine + 1uM folinic acid	49.2 ± 6.9%
[2], 1.29 µM, metabolite supplement: 50uM thymidine + 250uM folic acid	37.2 ± 4.3%
[2], 1.29 µM, metabolite supplement: 250uM folic acid	27.5 ± 1%
[2], 1.29 µM, metabolite supplement: vehicle	26.9 ± 3.9%
[2], 3.59 µM, metabolite supplement: 1uM folinic acid	48.7 ± 20%
[2], 3.59 µM, metabolite supplement: 50uM thymidine	26.7 ± 2.2%
[2], 3.59 µM, metabolite supplement: 50uM thymidine + 1uM folinic acid	43.4 ± 4.6%
[2], 3.59 µM, metabolite supplement: 50uM thymidine + 250uM folic acid	35.5 ± 3.6%
[2], 3.59 µM, metabolite supplement: 250uM folic acid	27.3 ± 0.84%
[2], 3.59 µM, metabolite supplement: vehicle	25.7 ± 3.1%
[2], 10 µM, metabolite supplement: 1uM folinic acid	31.6 ± 6.5%
[2], 10 µM, metabolite supplement: 50uM thymidine	26.6 ± 2%
[2], 10 µM, metabolite supplement: 50uM thymidine + 1uM folinic acid	39.9 ± 4.6%
[2], 10 µM, metabolite supplement: 50uM thymidine + 250uM folic acid	35.5 ± 3.7%
[2], 10 µM, metabolite supplement: 250uM folic acid	27.3 ± 0.91%
[2], 10 µM, metabolite supplement: vehicle	26 ± 4%

— the supplement of paper PMC10132981, “Formate overflow drives toxic folate trapping in MTHFD1 inhibited cancer cells” (Nature Metabolism, 2023)
